24 molecules from US20260325685A1, “Radiopharmaceutical Compositions Targeting Carbonic Anhydrase IX and Uses Thereof” (RayzeBio, Inc., priority 2023, published 2026) can be followed below.

For orientation: pKd means the Kd on a negative log10 scale, so that one unit is a factor of ten.

Experiment [1] deals with T1, human CA-XII (Homo sapiens, UniProt O43570).
T1 construct: purchased Creative BioMart CA12-261H
In words: Surface Plasmon Resonance (SPR) binding kinetics to recombinant human CA-XII (Biacore 8K, single-cycle kinetics, 1:1 binding model). In outline:
(§1)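 Proteins were captured on streptavidin chips at 1200-1800 RU (CA-IX 180 s, CA-XII 75 s injection). Compound was run at 9 concentrations (100-0.39 nM) in PBS-P+ pH 7.4 with 1% DMSO, 120 s association, 1200 s dissociation, 25° C. Rate constants came from reference- and DMSO-corrected curves.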
On the technique in general: SPR reads the build-up and loss of mass on a sensor chip optically.

For experiment [2], the target named is T2, human CA-IX (Homo sapiens, UniProt Q16790).
T2 construct: purchased Acro CA9-H82E3
In words: Surface Plasmon Resonance (SPR) binding kinetics to recombinant human CA-IX (Biacore 8K, single-cycle kinetics, 1:1 binding model). An outline of the steps: as §1

Setting [3] is: Chelated Metal: Lu-175, 25° C., pH 7.4, read-out: CAXII KD.
The mark [4] stands for this setting: Chelated Metal: Lu-175; SPR, 25° C., pH 7.4; read-out: CAIX KD.
Setting [5] is: read-out: CAXII KD, Chelated Metal: Lu-175, 25° C., pH 7.4.
Where [6] appears, read: read-out: CAIX KD; Chelated Metal: Lu-175; SPR, 25° C., pH 7.4.

Each structure is given as a SMILES string. pKd: −log10 of the molar value. Like-named read-outs stand apart in the source and are kept apart here.

T1 sequence (O43570 25-354): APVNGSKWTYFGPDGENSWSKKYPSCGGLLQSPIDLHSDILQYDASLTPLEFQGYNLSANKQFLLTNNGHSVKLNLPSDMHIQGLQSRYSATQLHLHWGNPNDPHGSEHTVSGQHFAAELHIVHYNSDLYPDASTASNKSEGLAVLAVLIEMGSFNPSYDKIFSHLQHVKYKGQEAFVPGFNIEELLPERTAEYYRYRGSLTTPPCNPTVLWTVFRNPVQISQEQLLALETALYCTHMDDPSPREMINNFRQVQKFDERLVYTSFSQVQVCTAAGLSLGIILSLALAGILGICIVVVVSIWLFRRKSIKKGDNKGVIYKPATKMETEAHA

For the molecule `Cc1c(C(F)(F)F)n[nH]c1C(=O)N1CCC(C(=O)O)(C(=O)NCC(=O)N2CCN(C(=O)CN3CCN(CC(=O)O)CCN(CC(=O)O)CCN(CC(=O)O)CC3)C[C@H]2C(=O)NCCn2cc(C34CC(C(=O)Nc5nnc(S(N)(=O)=O)s5)(C3)C4)nn2)CC1.[Lu+3]` [Compound 112.13], the values for the pKd in experiment [1] (setting [3]) and in experiment [2] (setting [4]) were under 8.00 and 8.60 to 9.00, respectively.
Taken in the same sequence, the figures for `NS(=O)(=O)c1nnc(NC(=O)C23CC(c4cn(CCNC(=O)[C@@H]5CN(C(=O)CN6CCN(CC(=O)O)CCN(CC(=O)O)CCN(CC(=O)O)CC6)CCN5C(=O)C[C@H](NC(=O)C[C@H](NC(=O)C5CC6(C5)CC(F)(F)C6)C(=O)O)C(=O)O)nn4)(C2)C3)s1.[Lu+3]` [Compound 109.61] were 8.00 to 8.60 and 8.60 to 9.00.
On to `CC(CCC(=O)N[C@@H](CC(=O)N[C@@H](CC(=O)N[C@@H](CCCn1cc(C23CCC(C(=O)Nc4nnc(S(N)(=O)=O)s4)(CC2)C3)nn1)C(=O)NCCOCCOCCNC(=O)CN1CCN(CC(=O)O)CCN(CC(=O)O)CCN(CC(=O)O)CC1)C(=O)O)C(=O)O)(c1ccc(O)cc1)c1ccc(O)cc1.[Lu+3]` [Compound 100.5], for which the pKd in experiment [1] (setting [3]) and in experiment [2] (setting [4]) was over 9.00 throughout.
`NS(=O)(=O)c1nnc(NC(=O)C23CC(c4cn(CCNC(=O)[C@@H]5CN(C(=O)CN6CCN(CC(=O)O)CCN(CC(=O)O)CCN(CC(=O)O)CC6)CCN5C(=O)C[C@H](NC(=O)C[C@H](NC(=O)Cc5n[nH]c6ccccc56)C(=O)O)C(=O)O)nn4)(C2)C3)s1.[Lu+3]` [Compound 109.10]: the pKd is 8.00 to 8.60 in experiment [1] (setting [3]) and over 9.00 in experiment [2] (setting [4]).
Taken in the same sequence, the figures for `NS(=O)(=O)c1nnc(NC(=O)C23CC(c4cn(CCNC(=O)[C@@H]5CN(C(=O)CN6CCN(CC(=O)O)CCN(CC(=O)O)CCN(CC(=O)O)CC6)CCN5C(=O)C[C@H](NC(=O)C[C@H](NC(=O)c5ccc(C6CC6)cc5)C(=O)O)C(=O)O)nn4)(C2)C3)s1.[Lu+3]` [Compound 109.1] were 8.00 to 8.60 and over 9.00.
Regarding `CC(CCC(=O)N1CCC[C@H]1C(=O)N[C@@H](CC(=O)N1CCN(C(=O)CN2CCN(CC(=O)O)CCN(CC(=O)O)CCN(CC(=O)O)CC2)C[C@@H]1C(=O)NCCn1cc(C23CC(C(=O)Nc4nnc(S(N)(=O)=O)s4)(C2)C3)nn1)C(=O)O)(c1ccc(O)cc1)c1ccc(O)cc1.[Lu+3]` [Compound 108], the pKd in experiment [1] (setting [5]) is under 8.00; in experiment [2] (setting [6]), 8.60 to 9.00.
Consider `CC(CCC(=O)N[C@@H](CC(=O)N[C@@H](CC(=O)N1CCN(C(=O)CN2CCN(CC(=O)O)CCN(CC(=O)O)CCN(CC(=O)O)CC2)C[C@H]1C(=O)NCCn1cc(C23CC(C(=O)Nc4nnc(S(N)(=O)=O)s4)(C2)C3)nn1)C(=O)O)C(=O)O)(c1ccc(O)cc1)c1ccc(O)cc1.[Lu+3]` [Compound 107.38], for which the negative-log Kd (pKd) was under 8.00 in experiment [1] (setting [3]) and over 9.00 in experiment [2] (setting [4]).
On to `CC(CCC(=O)N1CCN(C(=O)CN2CCN(CC(=O)O)CCN(CC(=O)O)CCN(CC(=O)O)CC2)C[C@H]1C(=O)N[C@@H](CC(=O)N1CCOC[C@@H]1Cn1cc(C23CC(C(=O)Nc4nnc(S(N)(=O)=O)s4)(C2)C3)nn1)C(=O)O)(c1ccc(O)cc1)c1ccc(O)cc1.[Lu+3]` [Compound 118.2], for which the negative logarithm of the Kd (pKd) in experiment [1] (setting [3]) is under 8.00; in experiment [2] (setting [4]), 8.60 to 9.00.
Regarding `CC(CCCC(=O)N1CCOC[C@H]1C(=O)N[C@@H](CC(=O)N1CCN(C(=O)CN2CCN(CC(=O)O)CCN(CC(=O)O)CC2)C[C@@H]1C(=O)NCCn1cc(C23CC(C(=O)Nc4nnc(S(N)(=O)=O)s4)(C2)C3)nn1)C(=O)O)(c1ccc(O)cc1)c1ccc(O)cc1.[Cu+2]` [Compound 126.3], the pKd in experiment [1] (Chelated Metal: Cu (cold), 25° C., pH 7.4, read-out: CAXII KD) is under 8.00; in experiment [2] (Chelated Metal: Cu (cold); SPR, 25° C., pH 7.4; read-out: CAIX KD) it was over 9.00.
Regarding `NS(=O)(=O)c1nnc(NC(=O)C23CC(c4cn(CCNC(=O)[C@@H]5CN(C(=O)CN6CCN(CC(=O)O)CCN(CC(=O)O)CCN(CC(=O)O)CC6)CCN5C(=O)C[C@H](Nc5ncc(C(=O)NCC6CC7(CCC7)C6)cn5)C(=O)O)nn4)(C2)C3)s1.[Lu+3]` [Compound 111.9], the pKd was under 8.00 in experiment [1] (setting [3]) and 8.60 to 9.00 in experiment [2] (setting [4]).
Turning to `CC(CCC(=O)N[C@@H](CC(=O)N[C@@H](CC(=O)NC1(C(=O)NCCOCCOCCNC(=O)CN2CCN(CC(=O)O)CCN(CC(=O)O)CCN(CC(=O)O)CC2)CN(C(=O)Cn2cc(CCCC(=O)Nc3nnc(S(N)(=O)=O)s3)nn2)C1)C(=O)O)C(=O)O)(c1ccc(O)cc1)c1ccc(O)cc1.[Lu+3]` [Compound 103], the pKd in experiment [1] (setting [5]) is 8.00 to 8.60; in experiment [2] (setting [6]), 8.60 to 9.00.
As for `Cc1cc(C(=O)Nc2nnc(S(N)(=O)=O)s2)ccc1-c1cn(CCNC(=O)[C@@H]2CN(C(=O)CN3CCN(CC(=O)O)CCN(CC(=O)O)CCN(CC(=O)O)CC3)CCN2C(=O)C[C@H](NC(=O)C[C@H](NC(=O)CCC(C)(c2ccc(O)cc2)c2ccc(O)cc2)C(=O)O)C(=O)O)nn1.[Lu+3]` [Compound 107.35], the negative logarithm of the Kd (pKd) in experiment [1] (setting [3]) was under 8.00; in experiment [2] (setting [4]) it was over 9.00.
Taken in the same sequence, the figures for `NS(=O)(=O)c1nnc(NC(=O)C23CC(c4cn(CCNC(=O)[C@@H]5CN(C(=O)CN6CCN(CC(=O)O)CCN(CC(=O)O)CCN(CC(=O)O)CC6)CCN5C(=O)CNC(=O)C5(C(=O)O)CCN(C(=O)CC6CC7(CCC7)C6)CC5)nn4)(C2)C3)s1.[Lu+3]` [Compound 112.8] were 8.00 to 8.60 and over 9.00.
In the case of `N[C@@H](CC(=O)N[C@@H](CC(=O)N1CCN(C(=O)CCOCCOCCOCCOCCN(CCOCCOCCOCCOCCC(=O)N2CCN(C(=O)C[C@H](NC(=O)C[C@H](N)C(=O)O)C(=O)O)[C@H](C(=O)NCCn3cc(C45CC(C(=O)Nc6nnc(S(N)(=O)=O)s6)(C4)C5)nn3)C2)C(=O)CNC(=O)CN2CCN(CC(=O)O)CCN(CC(=O)O)CCN(CC(=O)O)CC2)C[C@H]1C(=O)NCCn1cc(C23CC(C(=O)Nc4nnc(S(N)(=O)=O)s4)(C2)C3)nn1)C(=O)O)C(=O)O.[Lu+3]` [Compound 131.5], the negative logarithm of the Kd (pKd) in experiment [1] (setting [3]) and in experiment [2] (setting [4]) was over 9.00 each time.
Turning to `NS(=O)(=O)c1nnc(NC(=O)C23CC(c4cn(CCNC(=O)[C@@H]5CN(C(=O)CN6CCN(CC(=O)O)CCN(CC(=O)O)CCN(CC(=O)O)CC6)CCN5C(=O)C[C@H](Nc5ncc(C(=O)NCc6ccc(S(F)(F)(F)(F)F)cc6)cn5)C(=O)O)nn4)(C2)C3)s1.[Lu+3]` [Compound 111], the pKd was under 8.00 in experiment [1] (setting [5]) and 8.00 to 8.60 in experiment [2] (setting [6]).
Regarding `CC(CCCC(=O)N1CCC(C(N)=O)(C(=O)NCC(=O)NC2(C(=O)NCCn3cc(C45CCC(c6cn7nc(S(N)(=O)=O)sc7n6)(CC4)CC5)nn3)CCN(C(=O)CC[C@H](C(=O)O)N3CCN(CC(=O)O)CCN(CC(=O)O)CCN(CC(=O)O)CC3)CC2)CC1)(c1ccc(O)cc1)c1ccc(O)cc1.[Lu+3]` [Compound 127.6], the negative-log Kd (pKd) in experiment [1] (setting [3]) and in experiment [2] (setting [4]) was over 9.00 throughout.
On to `CC(CCCC(=O)N1CCC(C(N)=O)(C(=O)NCC(=O)N2CCN(C(=O)CN3CCN(C(=O)CN4CCN(CC(=O)O)CCN(CC(=O)O)CCN(CC(=O)O)CC4)CC3)C[C@@H]2C(=O)NCCn2cc(C34CC(C(=O)Nc5nnc(S(N)(=O)=O)s5)(C3)C4)nn2)CC1)(c1ccc(O)cc1)c1ccc(O)cc1.[Lu+3]` [Compound 129.3], for which the negative-log Kd (pKd) in experiment [1] (setting [3]) was under 8.00; in experiment [2] (setting [4]), over 9.00.
For `NS(=O)(=O)c1nnc(NC(=O)C23CC(c4cn(CCNC(=O)[C@@H]5CN(C(=O)CN6CCN(CC(=O)O)CCN(CC(=O)O)CCN(CC(=O)O)CC6)CCN5C(=O)CNC(=O)C5(C(=O)O)CCN(C(=O)Cc6ccc7[nH]ncc7c6)CC5)nn4)(C2)C3)s1.[Lu+3]` [Compound 112.16], the values for the negative logarithm of the Kd (pKd) in experiment [1] (setting [3]) and in experiment [2] (setting [4]) were under 8.00 and 8.00 to 8.60, respectively.
Taken in the same sequence, the figures for `NS(=O)(=O)c1nnc(NC(=O)C23CCC(c4cn(CCNC(=O)[C@@H]5CN(C(=O)CN6CCN(CC(=O)O)CCN(CC(=O)O)CCN(CC(=O)O)CC6)CCN5C(=O)CNC(=O)C5(C(=O)O)CCN(C(=O)CCCc6ccc(O)cc6)CC5)nn4)(CC2)CC3)s1.[Lu+3]` [Compound 107.7] were 8.60 to 9.00 and over 9.00.
Taken in the same sequence, the figures for `CC(CCCOc1cc(NC(CC(=O)N[C@@H](CCCCn2cc(CCCC(=O)Nc3nnc(S(N)(=O)=O)s3)nn2)C(=O)NCCOCCOCCNC(=O)CN2CCN(CC(=O)O)CCN(CC(=O)O)CCN(CC(=O)O)CC2)C(=O)O)cc(C(=O)O)c1)(c1ccc(O)cc1)c1ccc(O)cc1.[Lu+3]` (stereo partly drawn) [Compound 102.7] were 8.00 to 8.60 and over 9.00.
Taken in the same sequence, the figures for `NS(=O)(=O)c1nnc(NC(=O)C23CC(c4cn(CCNC(=O)[C@@H]5CN(C(=O)CN6CCN(CC(=O)O)CCN(CC(=O)O)CCN(CC(=O)O)CC6)CCN5C(=O)C[C@H](NC(=O)C[C@H](NC(=O)c5ccc(C6(C(F)(F)F)CC6)cc5)C(=O)O)C(=O)O)nn4)(C2)C3)s1.[Lu+3]` [Compound 109.24] were 8.00 to 8.60 and 8.60 to 9.00.
With `NS(=O)(=O)c1nnc(NC(=O)C23CC(c4cn(CCNC(=O)[C@@H]5CN(C(=O)CN6CCN(CC(=O)O)CCN(CC(=O)O)CCN(CC(=O)O)CC6)CCN5C(=O)C[C@H](Nc5ncc(C(=O)NCc6coc(C(F)(F)F)n6)cn5)C(=O)O)nn4)(C2)C3)s1.[Lu+3]` [Compound 111.5], the negative-log Kd (pKd) in experiment [1] (setting [3]) is under 8.00; in experiment [2] (setting [4]), 8.00 to 8.60.
`CC(CCC(=O)N[C@@H](CC(=O)N[C@@H](CC(=O)N[C@@H](CCCCN1CCN(c2ccc(C(=O)Nc3nnc(S(N)(=O)=O)s3)cc2)CC1)C(=O)NCCOCCOCCNC(=O)CN1CCN(CC(=O)O)CCN(CC(=O)O)CCN(CC(=O)O)CC1)C(=O)O)C(=O)O)(c1ccc(O)cc1)c1ccc(O)cc1.[Lu+3]` [Compound 121.1]: the negative logarithm of the Kd (pKd) was under 8.00 in experiment [1] (setting [3]) and 8.60 to 9.00 in experiment [2] (setting [4]).
Taken in the same sequence, the figures for `CC(CCC(=O)N1CCC(C(=O)O)(C(=O)NCC(=O)N2CCN(C(=O)CN3CCN(CC(=O)O)CCN(CC(=O)O)CCN(CC(=O)O)CC3)C[C@@H]2C(=O)NCCn2cc(C34CC(C(=O)Nc5nnc(S(N)(=O)=O)s5)(C3)C4)nn2)CC1)(c1ccc(O)cc1)c1ccc(O)cc1.[Lu+3]` [Compound 107.4] were under 8.00 and 8.60 to 9.00.
